The results in this text go back to patent US20250129027A1 (APOGEE PHARMACEUTICALS, INC., priority 2023, published 2025).

One experiment deals with human recombinant FAAH (Homo sapiens (Human), UniProt O00519). The experiment can be described thus: In vitro inhibition of FAAH activity (fluorescent inhibitor screening kit, AMC arachidonoyl amide). It counts as biochemical. Conditions: human recombinant FAAH; read-out: Inhibition on FAAH activity (IC50). The source says: The inhibitory effect of compounds of Formula (I-IV) on the activity of human recombinant FAAH was studied using a commercial inhibitor screening kit (Cayman Chemicals, Godlewski et al., 2010 [19]). In brief, FAAH hydrolyzes AMC arachidonoyl amide resulting in the release of the fluorescent product, while the inhibitor will inhibit the FAAH activity and thus reduce the fluorescent signal. The resulting fluorophore can be analyzed using an excitation wavelength of 340-360 nm and an emission wavelength of 450-465 nm by a plate reader (Synergy H1, Biotek). Inhibition is calculated as a percentage of the treated sample over the non-treated control based on the signal values, and where possible, a range of concentrations of compounds was tested to find the IC50 values (i.e. the concentration of compound that inhibited 50% FAAH activity).
Chain of human recombinant FAAH (O00519 whole entry): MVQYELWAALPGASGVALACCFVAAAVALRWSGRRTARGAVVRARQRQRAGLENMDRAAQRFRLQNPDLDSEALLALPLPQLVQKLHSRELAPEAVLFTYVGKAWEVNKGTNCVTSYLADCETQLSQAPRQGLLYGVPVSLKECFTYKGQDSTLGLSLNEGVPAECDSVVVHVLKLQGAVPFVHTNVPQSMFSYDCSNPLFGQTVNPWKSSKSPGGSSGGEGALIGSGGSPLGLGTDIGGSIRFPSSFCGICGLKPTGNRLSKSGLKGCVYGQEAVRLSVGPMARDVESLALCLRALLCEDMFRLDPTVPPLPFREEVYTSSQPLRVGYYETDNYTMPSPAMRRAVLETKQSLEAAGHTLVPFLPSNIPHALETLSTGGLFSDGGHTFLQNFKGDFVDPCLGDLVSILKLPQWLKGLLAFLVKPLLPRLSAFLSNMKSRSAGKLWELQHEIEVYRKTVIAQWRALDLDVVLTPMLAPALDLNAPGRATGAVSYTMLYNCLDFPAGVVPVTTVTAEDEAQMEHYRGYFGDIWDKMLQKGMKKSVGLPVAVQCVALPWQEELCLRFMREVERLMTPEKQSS

In another experiment the target is human recombinant MAGL (Homo sapiens (Human), UniProt Q99685). The experiment is described as follows: In vitro inhibition of MAGL activity (inhibitor screening kit, 4-nitrophenylacetate). It counts as biochemical. Conditions: human recombinant MAGL. How it is done:
The inhibitory effect of the compounds on activity of human recombinant MAGL was also studied using a commercial inhibitor screening kit (Cayman Chemicals). In brief, MAGL hydrolyzes 4-nitrophenylacetate resulting in a yellow product, 4-nitrophenol with an absorbance at 405-412 nm, while the inhibitor will inhibit the MAGL activity and thus reduce the yellow signal. The absorbance of the yellow product can be analyzed using the plate reader. Inhibition is calculated as a percentage of the treated sample over the non-treated MAGL control based on the signal values.

Chain of human recombinant MAGL (Q99685 whole entry): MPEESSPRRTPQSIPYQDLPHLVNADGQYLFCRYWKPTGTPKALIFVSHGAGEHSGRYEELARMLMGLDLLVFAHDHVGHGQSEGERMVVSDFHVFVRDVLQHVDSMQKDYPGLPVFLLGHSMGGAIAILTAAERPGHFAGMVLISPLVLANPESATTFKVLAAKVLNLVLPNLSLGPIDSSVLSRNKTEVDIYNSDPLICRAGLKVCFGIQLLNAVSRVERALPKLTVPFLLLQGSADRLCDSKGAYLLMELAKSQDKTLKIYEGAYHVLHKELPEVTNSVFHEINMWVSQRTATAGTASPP

As for “3-(5-(1,3,4-oxadiazol-2-yl pyridin-3-yl)phenyl pentylcarbamate [Example 127]”, the half-maximal inhibitory concentration (IC50) at human recombinant FAAH was 10 to 100 nM; at human recombinant MAGL, greater than 50000 nM.

On to “3-(5-(1,3,4-oxadiazol-2-yl)134 pyridine-3-yl)phenyl heptylcarbamate [Example 129]”, for which the IC50 is 1 to 10 nM at human recombinant FAAH and greater than 10000 nM at human recombinant MAGL.

Consider `CCCCCNC(=O)Oc1cccc(-c2cncc(C(=O)OCC)c2)c1` [Example 1, ethyl 5-(3-((pentylcarbamoyl)oxy)phenyl)nicotinate], for which the IC50 at human recombinant FAAH lay within 10 to 100 nM.

Regarding `CCCCCCCNC(=O)Oc1cccc(-c2cncc(C(=O)OCC)c2)c1` [Example 2, ethyl 5-(3-((heptylcarbamoyl)oxy)phenyl)nicotinate], the IC50 on human recombinant FAAH lay in the range of 10 to 100 nM; at human recombinant MAGL it was 1000 to 10000 nM.

Turning to `CCCCCCCCNC(=O)Oc1cccc(-c2cncc(C(=O)OCC)c2)c1` [Example 3, ethyl 5-(3-((octylcarbamoyl)oxy)phenyl)nicotinate], on human recombinant FAAH, the IC50 is 10 to 100 nM.

`CCCCCCCCCCCCCCNC(=O)Oc1cccc(-c2cncc(C(=O)OCC)c2)c1` [Example 4, ethyl 5-(3-((tetradecylcarbamoyl)oxy)phenyl)nicotinate]: the figures for the IC50 at human recombinant FAAH and at human recombinant MAGL were 1 to 10 nM and 1000 to 10000 nM, respectively.

On to `CCOC(=O)c1cncc(-c2cccc(OC(=O)NC3CCCC3)c2)c1` [Example 5, ethyl 5-(3-((cyclopentylcarbamoyl)oxy)phenyl)nicotinate], for which the values for the IC50 at human recombinant FAAH and on human recombinant MAGL were 10 to 100 nM and greater than 10000 nM, respectively.

For `CCOC(=O)c1cncc(-c2cccc(OC(=O)NC3CCCCC3)c2)c1` [Example 6, ethyl 5-(3-((cyclohexylcarbamoyl)oxy)phenyl)nicotinate], the IC50 on human recombinant FAAH and on human recombinant MAGL was greater than 100 nM each time.

`CCOC(=O)c1cncc(-c2cccc(OC(=O)Nc3ccc(F)cc3)c2)c1` [Example 7, ethyl 5-(3-(((4-fluorophenyl)carbamoyl)oxy)phenyl)nicotinate]: the results for the IC50 at human recombinant FAAH and on human recombinant MAGL were greater than 1000 nM and greater than 10000 nM, respectively.

Take `CCCCCNC(=O)Oc1cccc(-c2cncc(C(=O)OC)c2)c1` [Example 8, methyl 5-(3-((pentylcarbamoyl)oxy)phenyl)nicotinate]: the IC50 at human recombinant FAAH is 10 to 100 nM.

With `CCCCCCCNC(=O)Oc1cccc(-c2cncc(C(=O)OC)c2)c1` [Example 9, methyl 5-(3-((heptylcarbamoyl)oxy)phenyl)nicotinate], at human recombinant FAAH, the IC50 was 1 to 10 nM.

`CCCCCCCCNC(=O)Oc1cccc(-c2cncc(C(=O)OC)c2)c1` [Example 10, methyl 5-(3-((octylcarbamoyl)oxy)phenyl)nicotinate]: the IC50 on human recombinant FAAH was 1 to 10 nM.

As to `COC(=O)c1cncc(-c2cccc(OC(=O)NC3CCCC3)c2)c1` [Example 11, methyl 5-(3-((cyclopentylcarbamoyl)oxy)phenyl)nicotinate], the IC50 at human recombinant FAAH was 10 to 100 nM; on human recombinant MAGL, greater than 10000 nM.

Regarding `COC(=O)c1cncc(-c2cccc(OC(=O)NC3CCCCC3)c2)c1` [Example 12, methyl 5-(3-((cyclohexylcarbamoyl)oxy)phenyl)nicotinate], the IC50 on human recombinant FAAH was 10 to 100 nM; on human recombinant MAGL, greater than 10000 nM.

Consider `COC(=O)c1cncc(-c2cccc(OC(=O)NC34CC5CC(CC(C5)C3)C4)c2)c1` [Example 13, methyl 5-(3-((((1s,3s)-adamantan-1-yl)carbamoyl)oxy)phenyl)nicotinate], for which the concentration for half-maximal inhibition (IC50) on human recombinant FAAH was greater than 1000 nM; on human recombinant MAGL, greater than 10000 nM.

Regarding `CCCCCNC(=O)Oc1cccc(-c2cncc(C=O)c2)c1` [Example 14, 3-(5-formylpyridin-3-yl)phenyl pentylcarbamate], the IC50 at human recombinant FAAH lay within 10 to 100 nM; on human recombinant MAGL, 10000 to 50000 nM.

As to `CCCCCCCNC(=O)Oc1cccc(-c2cncc(C=O)c2)c1` [Example 15, 3-(5-formylpyridin-3-yl)phenyl heptylcarbamate], the IC50 on human recombinant FAAH was 10 to 100 nM; at human recombinant MAGL, 10000 to 50000 nM.

Turning to `CCCCCCCCNC(=O)Oc1cccc(-c2cncc(C=O)c2)c1` [Example 16, 3-(5-formylpyridin-3-yl)phenyl octylcarbamate], the half-inhibitory concentration (IC50) at human recombinant FAAH lay in the range of 10 to 100 nM; at human recombinant MAGL, 1000 to 10000 nM.

In the case of `O=Cc1cncc(-c2cccc(OC(=O)NCC3CCCCC3)c2)c1` [Example 17, 3-(5-formylpyridin-3-yl)phenyl (cyclohexylmethyl)carbamate], the IC50 on human recombinant FAAH is 10 to 100 nM; on human recombinant MAGL, greater than 10000 nM.

Regarding `O=Cc1cncc(-c2cccc(OC(=O)NC3CCCC3)c2)c1` [Example 18, 3-(5-formylpyridin-3-yl)phenyl cyclopentylcarbamate], the IC50 was 10 to 100 nM at human recombinant FAAH and greater than 10000 nM on human recombinant MAGL.

Consider `O=Cc1cncc(-c2cccc(OC(=O)NC3CCCCCC3)c2)c1` [Example 20, 3-(5-formylpyridin-3-yl)phenyl cyclohepylcarbamate], for which the IC50 on human recombinant FAAH was 100 to 1000 nM; on human recombinant MAGL, greater than 10000 nM.

For `O=Cc1cncc(-c2cccc(OC(=O)NC34CC5CC(CC(C5)C3)C4)c2)c1` [Example 21, 3-(5-formylpyridin-3-yl)phenyl ((1s,3s)-adamantan-1-yl)carbamate], the IC50 was greater than 1000 nM at human recombinant FAAH and greater than 10000 nM on human recombinant MAGL.

Take `CCCCCCCNC(=O)Oc1cccc(-c2cncc(C(=O)NO)c2)c1` [Example 22, 3-(5-(hydroxycarbamoyl)pyridin-3-yl)phenyl heptylcarbamate]: the half-inhibitory concentration (IC50) on human recombinant FAAH was 10 to 1000 nM; at human recombinant MAGL, greater than 1000 nM.

Regarding `CCCCCCCCNC(=O)Oc1cccc(-c2cncc(C(=O)NO)c2)c1` [Example 23, 3-(5-(hydroxycarbamoyl)pyridin-3-yl)phenyl octylcarbamate], the IC50 on human recombinant FAAH was greater than 1000 nM; at human recombinant MAGL it was greater than 10000 nM.

On to `CCCCCCCNC(=O)Oc1cccc(-c2cncc(C#N)c2)c1` [Example 26, 3-(5-cyanopyridin-3-yl)phenyl heptylcarbamate], for which the IC50 on human recombinant FAAH was 10 to 100 nM.

As to `CCCCCCCCNC(=O)Oc1cccc(-c2cncc(C#N)c2)c1` [Example 27, 3-(5-cyanopyridin-3-yl)phenyl octylcarbamate], the IC50 at human recombinant FAAH was in the range of 10 to 100 nM.

Turning to `CCCCCCCCNC(=O)Oc1cccc(-c2cncc(C(F)(F)F)c2)c1` [Example 30, 3-(5-(trifluoromethyl)pyridin-3-yl)phenyl octylcarbamate], the IC50 on human recombinant FAAH lay within 10 to 100 nM.

In the case of `CCCCCCCCNC(=O)Oc1ccc(OC)c(-c2cncc(-c3ccc[nH]3)c2)c1` [Example 41, 3-(5-(1H-pyrrol-2-yl)pyridin-3-yl)-4-methoxyphenyl octylcarbamate], at human recombinant FAAH, the IC50 is 10 to 100 nM.

In the case of `CCCCCCCCNC(=O)Oc1cccc(-c2cncc(-c3ccco3)c2)c1` [Example 47, 3-(5-(furan-2-yl)pyridin-3-yl)phenyl octylcarbamate], at human recombinant FAAH, the IC50 was in the range of 1 to 10 nM.

As for `CCCCCCCCNC(=O)Oc1ccc(OC)c(-c2cncc(-c3cccs3)c2)c1` [Example 65, 4-methoxy-3-(5-(thiophen-2-yl)pyridin-3-yl)phenyl octylcarbamate], the IC50 on human recombinant FAAH lay in the range of 10 to 100 nM.

Turning to `CCCCCCCCNC(=O)Oc1ccc(OC(F)(F)F)c(-c2cncc(-c3ncco3)c2)c1` [Example 88, 3-(5-(oxazol-2-yl)pyridin-3-yl)-4-(trifluoromethoxy)phenyl octylcarbamate], the IC50 on human recombinant FAAH was 10 to 100 nM.

Regarding `CCCCCCNC(=O)Oc1cccc(-c2cncc(-c3nnco3)c2)c1` [Example 128, 3-(5-(1,3,4-oxadiazol-2-yl)pyridin-3-yl)phenyl hexylcarbamate], the IC50 at human recombinant FAAH lay in the range of 10 to 20 nM.

For the compound `CCCCCCCCNC(=O)Oc1cccc(-c2cncc(-c3nnco3)c2)c1` [Example 130, 3-(5-(1,3,4-oxadiazol-2-yl)pyridine-3-yl)phenyl octylcarbamate], the IC50 at human recombinant FAAH was 1 to 10 nM.

Turning to `CCCCCCCCCCCCNC(=O)Oc1cccc(-c2cncc(-c3nnco3)c2)c1` [Example 131, 3-(5-(1,3,4-oxadiazol-2-yl)pyridin-3-yl)phenyl dodecylcarbamate], the IC50 at human recombinant FAAH was in the range of 10 to 20 nM.

On to `CCCCCCCNC(=O)Oc1ccc(O)c(-c2cncc(-c3nnco3)c2)c1` [Example 156, 3-(5-(1,3,4-oxadiazol-2-yl)pyridin-3-yl)-4-hydroxyphenyl heptylcarbamate], for which the IC50 at human recombinant FAAH lay within 1 to 10 nM.

Consider `CCCCCCCCNC(=O)Oc1ccc(O)c(-c2cncc(-c3nnco3)c2)c1` [Example 157, 3-(5-(1,3,4-oxadiazol-2-yl)pyridin-3-yl)-4-hydroxyphenyl octylcarbamate], for which the IC50 at human recombinant FAAH was 1 to 10 nM.

Take `CCCCCCCNC(=O)Oc1ccc(OC)c(-c2cncc(-c3nnco3)c2)c1` [Example 166, 3-(5-(1,3,4-oxadiazol-2-yl)pyridin-3-yl)-4-methoxyphenyl heptylcarbamate]: at human recombinant FAAH, the IC50 was 10 to 100 nM.

Turning to `CCCCCCCCNC(=O)Oc1ccc(OC)c(-c2cncc(-c3nnco3)c2)c1` [Example 167, 3-(5-(1,3,4-oxadiazol-2-yl)pyridin-3-yl)-4-methoxyphenyl octylcarbamate], on human recombinant FAAH, the IC50 lay in the range of 1 to 10 nM.

Turning to `COc1ccc(OC(=O)NC2CCCCC2)cc1-c1cncc(-c2nncs2)c1` [Example 217, 3-(5-(1,3,4-thiadiazol-2-yl)pyridin-3-yl)-4-methoxyphenyl cyclohexylcarbamate], the IC50 at human recombinant FAAH fell in the range of 100 to 1000 nM.

As for `O=C(NC1CCCCC1)Oc1cccc(-c2cc(-c3nnco3)ccn2)c1` [Example 260, 3-(4-(1,3,4-oxadiazol-2-yl)pyridin-2-yl)phenyl cyclohexylcarbamate], the 50% inhibitory concentration (IC50) on human recombinant MAGL was greater than 10000 nM.
